How the values were obtained:
[1] = Inclusion of leuprolide acetate in liposomes (ultracentrifugation, RP-HPLC); format: physicochemical; details: formulation L1 DPPC/DPPG/Chol liposomes, 100 mM lipid, extrusion 400 nm
Description: is dissolved in chloroform at 50° C. and subsequently dried completely in vacuum in a rotary evaporator. The lipid film is added with leuprolide acetate solution (2.5 mg/ml in 10 mM HEPES, 150 mM NaCl, pH 6) in an amount so as to form a 100 mM suspension. Subsequently, this suspension is hydrated in a water bath at 50° C for 45 minutes with agitating. Thereafter, the suspension is frozen. This is followed by 3 additional cycles of freezing and thawing.
Following final thawing, the liposomes are subjected to multiple extrusions through a membrane having a pore width of 400 nm (Avestin LiposoFast, polycarbonate membrane with a pore width of 400 nm).
Following removal of free leuprolide acetate, the percentage of entrapped leuprolide acetate is determined by means of triple sedimentation in an ultracentrifuge at 60,000×g for 45 minutes. The leuprolide acetate is determined following extraction with CHCl3 and CH3OH, using RP-HPLC. Inclusion rates of about 15% leuprolide acetate are found.

[2] = Inclusion of insulin in liposomes (ELISA after liberation from liposomes); format: physicochemical; details: DPPC/DPPG/Chol 50:10:40 liposomes, 50 mM lipid, extrusion 200 or 400 nm
Description: A mixture of 50 mole-% DPPC, 10 mole-% DPPG and 40 mole-% Chol is dissolved in chloroform at 50° C. and subsequently dried completely in vacuum in a rotary evaporator. The lipid film is added with human insulin solution (recombinant insulin; 7.5 mg/ml insulin in 10 mM glycine-HCl, 300 mM sucrose, pH 3) in an amount so as to form a 50 mM suspension. Subsequently, this suspension is hydrated in a water bath at 50° C. for 45 minutes by agitating and treated in an ultrasonic bath for another 5 minutes. Thereafter, the suspension is frozen. This is followed by 3 cycles of freezing and thawing, each thawing being followed by a 5 minute treatment in the ultrasonic bath.
Following final thawing, the liposomes are subjected to multiple extrusions through a membrane having a pore width of 200 nm or 400 nm (Avestin LiposoFast, polycarbonate membrane with a pore width of 200 or 400 nm). Following extrusion, the resulting suspension is rebuffered by adding a solutions of HEPES, pH 7.5, and NaCl. After filtration of the liposomes through […], non-entrapped insulin is removed by gel filtration (S-200 column, Pharmacia) . Following liberation from the liposomes, the amount of entrapped insulin is determined by means of an ELISA (DRG-ELISA Kit). Inclusion rates of 50-70% insulin are found.

Inclusion rate of leuprolide acetate [1] | Compound | Inclusion rate of insulin [2]
about 15% | CCNC(=O)[C@@H]1CCCN1C(=O)[C@H](CCCNC(=N)N)NC(=O)[C@H](CC(C)C)NC(=O)[C@@H](CC(C)C)NC(=O)[C@H](Cc1ccc(O)cc1)NC(=O)[C@H](CO)NC(=O)[C@H](Cc1c[nH]c2ccccc12)NC(=O)[C@H](Cc1c[nH]cn1)NC(=O)[C@@H]1CCC(=O)N1 [leuprolide acetate] | –
– | insulin: recombinant human insulin entrapped in DPPC/DPPG/Chol 50:10:40 liposomes | 50-70%

— patent US20070053918A1, “Injectable depots consisting of liposomal aggregates for the delivery of active substances” (NOVOSOM AG, priority 2003, published 2007)
